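Each compound was tested at five concentrations against cells in 96-well plates for 48 hours. TGI denotes the concentration required for complete inhibition of growth.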
Legend:
Experiment in all cases: NCI anticancer screen, dose series, 48 h
MDA-MB-231 breast = test system: MDA-MB-231 breast
MDA-N = test system: MDA-N
HT29 colon = test system: HT29 colon
NCI/ADR-RES ovarian = test system: NCI/ADR-RES ovarian
M14 melanoma = test system: M14 melanoma
NCI-H23 lung = test system: NCI-H23 lung
A549 NSCLC = test system: A549 NSCLC
COLO 205 colon = test system: COLO 205 colon
DU-145 prostate = test system: DU-145 prostate
UACC-62 melanoma = test system: UACC-62 melanoma
SF-268 CNS = test system: SF-268 CNS
MALME-3M melanoma = test system: MALME-3M melanoma
EKVX NSCLC = test system: EKVX NSCLC
SN12C renal = test system: SN12C renal
HCT-15 colon = test system: HCT-15 colon
PC-3 prostate = test system: PC-3 prostate
SK-OV-3 ovarian = test system: SK-OV-3 ovarian
ACHN renal = test system: ACHN renal
SF-539 CNS = test system: SF-539 CNS
OVCAR-4 ovarian = test system: OVCAR-4 ovarian
SK-MEL-2 melanoma = test system: SK-MEL-2 melanoma
SW-620 colon = test system: SW-620 colon
A498 renal = test system: A498 renal
HCC-2998 colon = test system: HCC-2998 colon
HS 578T breast = test system: HS 578T breast
NCI-H460 lung = test system: NCI-H460 lung
MCF7 breast = test system: MCF7 breast
SNB-75 CNS = test system: SNB-75 CNS
T-47D breast = test system: T-47D breast
RXF 393 renal = test system: RXF 393 renal
IGROV1 ovarian = test system: IGROV1 ovarian
MDA-MB-435 = test system: MDA-MB-435
TK-10 renal = test system: TK-10 renal
SK-MEL-28 melanoma = test system: SK-MEL-28 melanoma
KM12 colon = test system: KM12 colon
UACC-257 melanoma = test system: UACC-257 melanoma
HCT-116 colon = test system: HCT-116 colon
786-0 renal = test system: 786-0 renal
NCI-H226 lung = test system: NCI-H226 lung
OVCAR-5 ovarian = test system: OVCAR-5 ovarian
UO-31 renal = test system: UO-31 renal
HOP-92 NSCLC = test system: HOP-92 NSCLC
SR leukemia = test system: SR leukemia
MOLT-4 leukemia = test system: MOLT-4 leukemia
LOX IMVI melanoma = test system: LOX IMVI melanoma
HL-60(TB) leukemia = test system: HL-60(TB) leukemia
U251 CNS = test system: U251 CNS
OVCAR-3 ovarian = test system: OVCAR-3 ovarian
SK-MEL-5 melanoma = test system: SK-MEL-5 melanoma
SNB-19 CNS = test system: SNB-19 CNS
CCRF-CEM leukemia = test system: CCRF-CEM leukemia
SF-295 CNS = test system: SF-295 CNS
K-562 leukemia = test system: K-562 leukemia
OVCAR-8 ovarian = test system: OVCAR-8 ovarian
NCI-H522 lung = test system: NCI-H522 lung

`CCCCCCCCCCCCCCCC1(OC)C[N+](C)(C)CCO1` (configuration not stated) showed a TGI (MDA-MB-231 breast) of 4.8 µM, a TGI (MDA-N) of 4.99 µM and a TGI (HT29 colon) of 2.56 µM. It also gave a TGI (NCI/ADR-RES ovarian) of 41.7 µM, a TGI (M14 melanoma) of 3.13 µM and a TGI (NCI-H23 lung) of 2.81 µM. The TGI (A549 NSCLC) was 3.45 µM, the TGI (COLO 205 colon) was 2.58 µM and the TGI (DU-145 prostate) was 5.9 µM. For the same molecule, the TGI (UACC-62 melanoma) was 7.64 µM, the TGI (SF-268 CNS) was 5.04 µM and the TGI (MALME-3M melanoma) was 4.7 µM. It also gave a TGI (EKVX NSCLC) of 5.76 µM, a TGI (SN12C renal) of 3.94 µM and a TGI (HCT-15 colon) of 28.9 µM. It also gave a TGI (PC-3 prostate) of 6.21 µM, a TGI (SK-OV-3 ovarian) of 21.8 µM and a TGI (ACHN renal) of 5.8 µM. The TGI (SF-539 CNS) was 3.49 µM, the TGI (OVCAR-4 ovarian) was 5.96 µM and the TGI (SK-MEL-2 melanoma) was 7.63 µM. It also gave a TGI (SW-620 colon) of 26.4 µM, a TGI (A498 renal) of 67.5 µM and a TGI (HCC-2998 colon) of 6.18 µM. The TGI (HS 578T breast) was 7.22 µM, the TGI (NCI-H460 lung) was 5.57 µM and the TGI (MCF7 breast) was 0.901 µM. It also gave a TGI (SNB-75 CNS) of 0.445 µM, a TGI (T-47D breast) of 33.6 µM and a TGI (RXF 393 renal) of 2.39 µM. It also gave a TGI (IGROV1 ovarian) of 3.16 µM, a TGI (MDA-MB-435) of 3.63 µM and a TGI (TK-10 renal) of 5.33 µM. It also gave a TGI (SK-MEL-28 melanoma) of 6.33 µM, a TGI (KM12 colon) of 1.96 µM and a TGI (UACC-257 melanoma) of 4.85 µM. For the same molecule, the TGI (HCT-116 colon) was 3.38 µM, the TGI (786-0 renal) was 2.05 µM and the TGI (NCI-H226 lung) was 3.6 µM. For the same molecule, the TGI (OVCAR-5 ovarian) was 6.08 µM.

With `NC(=O)Oc1ccccc1` the TGI (UO-31 renal) was greater than 100 µM, the TGI (MDA-MB-231 breast) was greater than 100 µM and the TGI (HOP-92 NSCLC) was greater than 100 µM. For the same molecule, the TGI (MDA-N) was greater than 100 µM, the TGI (HT29 colon) was greater than 100 µM and the TGI (NCI/ADR-RES ovarian) was greater than 100 µM. It also gave a TGI (SR leukemia) greater than 100 µM, a TGI (M14 melanoma) greater than 100 µM and a TGI (NCI-H23 lung) greater than 100 µM. The TGI (MOLT-4 leukemia) was greater than 100 µM, the TGI (A549 NSCLC) was greater than 100 µM and the TGI (COLO 205 colon) was greater than 100 µM. For the same molecule, the TGI (DU-145 prostate) was greater than 100 µM, the TGI (SF-268 CNS) was greater than 100 µM and the TGI (LOX IMVI melanoma) was greater than 100 µM. For the same molecule, the TGI (SN12C renal) was greater than 100 µM, the TGI (HL-60(TB) leukemia) was greater than 100 µM and the TGI (HCT-15 colon) was greater than 100 µM. For the same molecule, the TGI (PC-3 prostate) was greater than 100 µM, the TGI (SK-OV-3 ovarian) was greater than 100 µM and the TGI (ACHN renal) was greater than 100 µM. It also gave a TGI (OVCAR-4 ovarian) greater than 100 µM, a TGI (SW-620 colon) greater than 100 µM and a TGI (A498 renal) greater than 100 µM. It also gave a TGI (HCC-2998 colon) greater than 100 µM, a TGI (U251 CNS) greater than 100 µM and a TGI (HS 578T breast) greater than 100 µM. The TGI (NCI-H460 lung) was greater than 100 µM, the TGI (MCF7 breast) was greater than 100 µM and the TGI (OVCAR-3 ovarian) was greater than 100 µM. It also gave a TGI (SK-MEL-5 melanoma) greater than 100 µM, a TGI (SNB-75 CNS) greater than 100 µM and a TGI (T-47D breast) greater than 100 µM. For the same molecule, the TGI (SNB-19 CNS) was greater than 100 µM, the TGI (RXF 393 renal) was greater than 100 µM and the TGI (CCRF-CEM leukemia) was greater than 100 µM. The TGI (MDA-MB-435) was greater than 100 µM, the TGI (SF-295 CNS) was greater than 100 µM and the TGI (TK-10 renal) was greater than 100 µM. For the same molecule, the TGI (K-562 leukemia) was greater than 100 µM, the TGI (OVCAR-8 ovarian) was greater than 100 µM and the TGI (SK-MEL-28 melanoma) was greater than 100 µM. It also gave a TGI (KM12 colon) greater than 100 µM, a TGI (UACC-257 melanoma) greater than 100 µM and a TGI (HCT-116 colon) greater than 100 µM. For the same molecule, the TGI (NCI-H226 lung) was greater than 100 µM and the TGI (NCI-H522 lung) was greater than 100 µM.

From PubChem BioAssay (NCI)
